# Patent publication US20210251963A1, “UREA DERIVATIVES FOR USE IN THE TREATMENT OF SUBJECTS WITH ELEVATED EXPRESSION AND/OR ACTIVITY OF SRPK1” (Scandion Oncology A/S, priority 2018, published 2021)
# Where two headings read alike, the source gives them in different places.
# Tests used:
# EPH-B4 = biological target: T1, EPH-B4 (Homo sapiens, UniProt P54760); test: Premier Screen kinase activity screening (33P ATP filter binding); type: biochemical; conditions: 10 μM SCO-101, mean of assay duplicates, read-out: Kinase activity (percentage of DMSO control)
# T1 construct: MRC in Dundee (screening service)
# In short: (§1)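 Each kinase was incubated with 10 μM compound and 33P-ATP, and incorporated radioactivity was captured on filters as a direct measure of enzyme activity. Mean percentage activity of the duplicates was then calculated against DMSO controls and reported with its standard deviation.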
# MLK1 = biological target: T2, MLK1 (Homo sapiens, UniProt P80192); test: as above; type: biochemical; conditions: 10 μM SCO-101, mean of assay duplicates, read-out: Kinase activity (percentage of DMSO control)
# T2 construct: MRC Dundee (screening service)
# In short: as §1
# SRPK1 = biological target: T3, SRPK1 (Homo sapiens, UniProt Q96SB4); test: Premier Screen kinase activity screening and IC50 determination (33P ATP filter binding); type: biochemical
# T3 construct: purchased MRC in Dundee (Premier Screen service)
# Description: (§2) The kinase activity screening was done at MRC in Dundee. The screen was a so-called “Premier Screen” with 140 kinases. More specific information can be found here: http://www.kinase-screen.mrc.ac.uk/services/premier-screen
# (§3) The method is based on a radioactive filter binding assay using 33P ATP (Hastie, et al 2006. Nat Protoc. 2006; 1(2):968-71; Bain, et al 2007. Biochem J. 2007 Dec. 15; 408(3):297-315). This method is sensitive, accurate and provides a direct measure of kinase enzyme activity. A concentration of 10 μM SCO-101 was used.
# (§4) In the table below, the data is portrayed as the mean percentage activity of assay duplicates and a standard deviation. These percentage activities were calculated in comparison to DMSO controls. 10 μM SCO-101 reduced the activity of SRPK1 to 6% of the DMSO control.
# This experiment was technically carried out as described in example 1, also done by MRC in Dundee. However, in this experiment 10 different concentrations of SCO-101 was applied in order to determine the half maximal inhibitory concentration (IC50). The following concentrations (in nM) were applied: 1.5, 5, 15, 50, 150, 500, 1500, 5000, […] and 50000. This experiment generated a dose response curve (FIG. 1), which confirmed the SCO-101 mediated inhibition of SRPK1. The IC50 value was determined to be 3.0 μM (Table 2).
# AMPK (hum) = test: Premier Screen kinase activity screening (33P ATP filter binding); type: biochemical, human; conditions: 10 μM SCO-101, mean of assay duplicates
# Description: as §2, §3, §4
# T3 sequence (Q96SB4 whole entry): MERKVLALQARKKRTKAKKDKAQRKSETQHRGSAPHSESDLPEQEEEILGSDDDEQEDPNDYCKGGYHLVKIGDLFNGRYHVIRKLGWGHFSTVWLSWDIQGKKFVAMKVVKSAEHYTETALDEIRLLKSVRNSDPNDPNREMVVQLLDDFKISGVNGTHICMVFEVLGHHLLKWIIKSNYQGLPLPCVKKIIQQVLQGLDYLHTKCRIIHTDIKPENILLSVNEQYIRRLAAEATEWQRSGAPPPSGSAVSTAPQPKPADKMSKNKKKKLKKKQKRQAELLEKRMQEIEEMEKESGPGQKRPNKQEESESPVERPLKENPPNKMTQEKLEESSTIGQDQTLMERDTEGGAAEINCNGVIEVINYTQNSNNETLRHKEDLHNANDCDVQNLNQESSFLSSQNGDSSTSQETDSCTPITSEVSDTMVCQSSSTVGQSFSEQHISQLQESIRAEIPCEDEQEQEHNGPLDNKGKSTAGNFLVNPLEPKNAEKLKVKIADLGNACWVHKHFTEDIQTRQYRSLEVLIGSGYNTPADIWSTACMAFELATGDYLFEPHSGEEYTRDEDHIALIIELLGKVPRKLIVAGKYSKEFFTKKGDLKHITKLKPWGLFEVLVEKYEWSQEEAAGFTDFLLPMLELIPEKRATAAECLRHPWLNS
# T2 sequence (P80192 whole entry, species assumed): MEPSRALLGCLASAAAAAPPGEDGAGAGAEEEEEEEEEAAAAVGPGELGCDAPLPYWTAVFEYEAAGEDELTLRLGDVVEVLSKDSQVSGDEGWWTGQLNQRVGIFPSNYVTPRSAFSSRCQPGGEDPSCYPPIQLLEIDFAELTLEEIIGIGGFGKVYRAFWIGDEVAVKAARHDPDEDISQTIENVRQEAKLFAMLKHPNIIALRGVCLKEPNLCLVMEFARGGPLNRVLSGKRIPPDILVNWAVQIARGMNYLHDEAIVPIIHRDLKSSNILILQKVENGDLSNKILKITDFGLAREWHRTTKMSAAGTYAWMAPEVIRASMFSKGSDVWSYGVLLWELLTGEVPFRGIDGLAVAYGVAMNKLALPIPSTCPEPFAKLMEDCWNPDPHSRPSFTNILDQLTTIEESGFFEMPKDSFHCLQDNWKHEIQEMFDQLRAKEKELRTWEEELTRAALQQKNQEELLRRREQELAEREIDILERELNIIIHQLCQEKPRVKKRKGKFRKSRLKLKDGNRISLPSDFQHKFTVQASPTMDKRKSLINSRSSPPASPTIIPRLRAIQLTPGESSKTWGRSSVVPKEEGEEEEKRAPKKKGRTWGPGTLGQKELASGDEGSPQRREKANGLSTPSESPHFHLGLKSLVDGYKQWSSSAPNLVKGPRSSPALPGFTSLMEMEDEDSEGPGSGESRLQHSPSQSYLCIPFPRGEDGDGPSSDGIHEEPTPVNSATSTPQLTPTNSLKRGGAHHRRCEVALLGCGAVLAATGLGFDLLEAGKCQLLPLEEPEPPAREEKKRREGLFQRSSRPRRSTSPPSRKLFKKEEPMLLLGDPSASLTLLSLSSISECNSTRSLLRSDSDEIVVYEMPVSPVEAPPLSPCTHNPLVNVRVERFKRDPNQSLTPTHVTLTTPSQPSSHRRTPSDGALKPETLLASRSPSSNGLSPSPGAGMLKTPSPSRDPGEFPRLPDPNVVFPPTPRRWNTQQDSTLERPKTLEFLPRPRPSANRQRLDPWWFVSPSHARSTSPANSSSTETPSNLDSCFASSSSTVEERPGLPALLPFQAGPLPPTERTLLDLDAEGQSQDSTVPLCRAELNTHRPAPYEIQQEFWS
# T1 sequence (P54760 16-987, species assumed): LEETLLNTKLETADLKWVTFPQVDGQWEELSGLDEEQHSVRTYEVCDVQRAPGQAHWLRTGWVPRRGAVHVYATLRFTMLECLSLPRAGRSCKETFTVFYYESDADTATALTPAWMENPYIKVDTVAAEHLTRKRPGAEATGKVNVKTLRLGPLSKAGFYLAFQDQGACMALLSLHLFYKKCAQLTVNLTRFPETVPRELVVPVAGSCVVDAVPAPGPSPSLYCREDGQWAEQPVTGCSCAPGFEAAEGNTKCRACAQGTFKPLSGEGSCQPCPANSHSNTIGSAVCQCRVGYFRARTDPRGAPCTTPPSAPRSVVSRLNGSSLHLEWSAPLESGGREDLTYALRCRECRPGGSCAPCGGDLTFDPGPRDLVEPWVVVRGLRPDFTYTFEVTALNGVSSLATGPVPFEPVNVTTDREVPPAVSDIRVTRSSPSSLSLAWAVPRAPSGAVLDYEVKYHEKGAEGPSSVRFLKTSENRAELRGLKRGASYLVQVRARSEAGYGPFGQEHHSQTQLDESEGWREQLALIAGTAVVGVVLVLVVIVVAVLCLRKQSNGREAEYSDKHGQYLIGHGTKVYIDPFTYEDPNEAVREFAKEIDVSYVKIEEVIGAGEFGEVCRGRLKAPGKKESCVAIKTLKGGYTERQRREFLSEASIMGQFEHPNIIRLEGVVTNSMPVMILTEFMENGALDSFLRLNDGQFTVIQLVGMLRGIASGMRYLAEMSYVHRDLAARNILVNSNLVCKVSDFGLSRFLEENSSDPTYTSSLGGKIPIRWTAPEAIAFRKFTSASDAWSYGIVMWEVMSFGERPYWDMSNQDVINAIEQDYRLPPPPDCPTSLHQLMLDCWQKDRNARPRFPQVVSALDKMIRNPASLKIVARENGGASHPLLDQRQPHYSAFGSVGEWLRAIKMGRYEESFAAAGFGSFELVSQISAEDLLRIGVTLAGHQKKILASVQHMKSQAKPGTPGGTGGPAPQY
compound,measurement,setting,value
O=C(Nc1cc(C(F)(F)F)cc(C(F)(F)F)c1)Nc1ccc(Br)cc1-c1nnn[nH]1 [SCO-101],remaining activity at 10 µM,EPH-B4,86%
same,remaining activity at 10 µM,MLK1,98%
same,remaining activity at 10 µM,"SRPK1; 10 μM SCO-101, mean of assay duplicates, read-out: Kinase activity (percentage of DMSO control)",6%
same,IC50,"SRPK1; first determination, 10 concentrations, read-out: IC50",2.9 µM
same,IC50,"SRPK1; mean of two determinations, read-out: mean IC50",3 µM
same,IC50,"SRPK1; second determination, 10 concentrations, read-out: IC50",3 µM
same,Kinase activity (percentage of DMSO control),AMPK (hum),97 percentage of DMSO control
